From patent US8853185B2, “Coferons and methods of making and using them” (Cornell University, priority 2008, dated 2014)
Values belong to the compound of their own block, whether it stands above or below them.

Columns and labels:
[1] = Dimerization of linker element precursors in aqueous solution by MS and MS/MS; assay type: physicochemical
Procedure: The ability of precursors to linker elements to form dimers in aqueous solutions was determined by mass spectrometry (MS) and mass spectrometry/mass spectrometry (MS/MS). Linker elements that form dimers (or multimers) only as a result of the ionization during mass spectrometry can be distinguished from those that truly form dimers in aqueous solution by determination of the fragmentation during mass spectrometry/mass spectrometry.

Bcl-xL = Bcl-xL (Homo sapiens, UniProt Q07817); conditions: read-out: DISSOCIATION CONSTANT (Kd); cited from earlier work
Chain of Bcl-xL (Q07817 whole entry, species assumed): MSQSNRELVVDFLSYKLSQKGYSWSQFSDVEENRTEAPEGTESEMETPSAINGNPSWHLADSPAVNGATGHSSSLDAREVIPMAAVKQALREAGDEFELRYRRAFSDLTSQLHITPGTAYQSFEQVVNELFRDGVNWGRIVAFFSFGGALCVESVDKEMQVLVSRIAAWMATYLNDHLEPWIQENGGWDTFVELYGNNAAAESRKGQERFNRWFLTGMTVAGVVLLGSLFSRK

MEK2 = MEK2 (Homo sapiens, UniProt P36507); conditions: read-out: DISSOCIATION CONSTANT (Kd); cited from earlier work
β CATENIN = biological target: T1, β CATENIN (Homo sapiens, UniProt P35222); conditions: read-out: DISSOCIATION CONSTANT (Kd); cited from earlier work
T1 sequence (P35222 1-781): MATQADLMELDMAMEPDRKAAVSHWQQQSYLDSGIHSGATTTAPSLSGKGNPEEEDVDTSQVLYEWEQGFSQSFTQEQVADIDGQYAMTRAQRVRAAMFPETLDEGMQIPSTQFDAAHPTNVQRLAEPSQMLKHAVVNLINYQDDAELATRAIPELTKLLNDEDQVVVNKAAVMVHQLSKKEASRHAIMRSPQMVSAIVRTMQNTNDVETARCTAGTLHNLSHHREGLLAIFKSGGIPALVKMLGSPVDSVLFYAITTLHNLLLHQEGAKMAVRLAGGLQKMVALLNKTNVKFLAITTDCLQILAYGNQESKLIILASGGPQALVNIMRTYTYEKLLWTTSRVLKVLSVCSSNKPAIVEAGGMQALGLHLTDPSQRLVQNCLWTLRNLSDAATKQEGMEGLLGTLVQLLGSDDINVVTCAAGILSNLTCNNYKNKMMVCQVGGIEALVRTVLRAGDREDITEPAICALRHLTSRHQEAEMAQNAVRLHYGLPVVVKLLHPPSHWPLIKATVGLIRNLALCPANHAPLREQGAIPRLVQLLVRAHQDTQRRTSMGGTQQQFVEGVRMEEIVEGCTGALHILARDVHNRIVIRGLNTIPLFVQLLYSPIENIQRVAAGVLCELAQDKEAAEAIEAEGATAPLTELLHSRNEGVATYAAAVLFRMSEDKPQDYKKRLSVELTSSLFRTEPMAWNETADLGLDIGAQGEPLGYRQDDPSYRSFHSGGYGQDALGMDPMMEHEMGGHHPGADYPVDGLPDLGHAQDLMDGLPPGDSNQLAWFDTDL

CDK2 = CDK2 (Homo sapiens, UniProt P24941); conditions: read-out: DISSOCIATION CONSTANT (Kd); cited from earlier work
CaMKII = conditions: read-out: DISSOCIATION CONSTANT (Kd); cited from earlier work
MEK1 = MEK1 (Homo sapiens, UniProt Q02750); conditions: read-out: DISSOCIATION CONSTANT (Kd); cited from earlier work
ERK = conditions: read-out: DISSOCIATION CONSTANT (Kd); cited from earlier work
[2] = self-dimerization, MS and MS/MS
[3] = piperidin-2-ylmethanol with cyclohexylboronic acid

- ability to form dimers in aqueous solution ([1]; with zinc acetate, 2 molecules co-ordinating one Zn cation, MS/MS): form a dimer
Compound: Cc1occc(=O)c1O [3-hydroxy-2-methyl-4H-pyran-4-one]

Compound: cytochrome c: binding partner of Bcl-xL
- Kd (Bcl-xL): 0.12 µM

- ability to form dimers in aqueous solution [1, 2]: exists mostly as the monomer
Compound: O=C(CO)CO [1,3-dihydroxyacetone]

- ability to form dimers in aqueous solution [1, 3]: form a dimer
Compound: OCC1CCCCN1 (stereo not shown) [piperidin-2-ylmethanol]

Compound: ERK2: binding partner of MEK2
- Kd (MEK2): 9 µM

Compound: APC: binding partner of β CATENIN
- Kd (β CATENIN): 310 µM

Compound: Nc1ncnc2c1ncn2[C@@H]1O[C@H](COP(=O)(O)OP(=O)(O)OP(=O)(O)O)[C@@H](O)[C@H]1O [ATP]
- Kd (CDK2): 0.227 µM

Compound: Calmodulin
- Kd (CaMKII): 0.03 µM

Compound: ERK1: binding partner of MEK1
- Kd (MEK1): 29 µM

- ability to form dimers in aqueous solution [1, 3]: form a dimer
Compound: OB(O)C1CCCCC1 [cyclohexylboronic acid]

Compound: MEK1: binding partner of ERK
- Kd (ERK): 0.61 µM

- ability to form dimers in aqueous solution [1, 2]: forms a dimer
Compound: O=C1CCCCC1O (stereo not shown) [2-hydroxycyclohexanone]

Compound: Nc1ncnc2c1ncn2[C@@H]1O[C@H](COP(=O)(O)OP(=O)(O)O)[C@@H](O)[C@H]1O [ADP]
- Kd (CDK2): 2.7 µM
